Reference: patent US10526297B2, “Benzylideneguanidine derivatives and therapeutic use for the treatment of protein misfolding diseases” (United Kingdom Research and Innovation, priority 2013, dated 2020)
Where two headings read alike, the source gives them in different places.

Legend:
HeLa cells [1] = experiment: Cytoprotection from ER Stress (Test 1); settings: 2.5 μg/ml tunicamycin 6 h, inhibitors 0.2-5 μM, WST-8 viability 48 h after tunicamycin, relative to control
HeLa cells [2] = experiment: Assessment of Translation Rates in Unstressed Cells (Test 2); assay type: cell-based; settings: compounds 50 μM, 0.5-7.5 h, 35S-methionine labelling
Protocol: Following labelling, cells were washed with ice-cold PBS and lysed in 75 μl Laemmli Buffer. […] Gels were then stained with Coomassie Brilliant Blue R-250 and analyzed by phosphorimaging.

HeLa cells [3] = experiment: Assessment of Translation Rates in Stressed Cells (Test 3); settings: tunicamycin 2.5 μg/ml together with compounds 50 μM, 35S-methionine labelling
PPP1R15A or PPP1R15B = experiment: Selectivity assessment inferred from the tests; assay type: cell-based; settings: inferred from translation inhibition in stressed/non-stressed cells
HeLa cells [4] = settings: tunicamycin, cited from earlier work
P0S63del mice = settings: cited from earlier work
[5] = tested on: G93A-SOD1 transgenic mouse; settings: cited from earlier work
[6] = tested on: animal models of alpha-synucleinopathy; settings: two animal models of alpha-synucleinopathy; cited from earlier work
prion infected mice = settings: mouse, in vivo; cited from earlier work
choroidal blood flow = settings: in vivo; cited from earlier work
non-stressed cells = settings: cited from earlier work
[7] = tested on: choroidal neovascularization (CNV); settings: laser-induced rat AMD model; cited from earlier work
mutant Huntingtin = settings: cell-based assays, cited from earlier work
PPP1R15B (CReP) = molecular target: T1, PPP1R15B (CReP) (Homo sapiens, UniProt Q5SWA1); settings: constitutive PPP1R15B (CReP); cited from earlier work
T1 sequence (Q5SWA1 1-713): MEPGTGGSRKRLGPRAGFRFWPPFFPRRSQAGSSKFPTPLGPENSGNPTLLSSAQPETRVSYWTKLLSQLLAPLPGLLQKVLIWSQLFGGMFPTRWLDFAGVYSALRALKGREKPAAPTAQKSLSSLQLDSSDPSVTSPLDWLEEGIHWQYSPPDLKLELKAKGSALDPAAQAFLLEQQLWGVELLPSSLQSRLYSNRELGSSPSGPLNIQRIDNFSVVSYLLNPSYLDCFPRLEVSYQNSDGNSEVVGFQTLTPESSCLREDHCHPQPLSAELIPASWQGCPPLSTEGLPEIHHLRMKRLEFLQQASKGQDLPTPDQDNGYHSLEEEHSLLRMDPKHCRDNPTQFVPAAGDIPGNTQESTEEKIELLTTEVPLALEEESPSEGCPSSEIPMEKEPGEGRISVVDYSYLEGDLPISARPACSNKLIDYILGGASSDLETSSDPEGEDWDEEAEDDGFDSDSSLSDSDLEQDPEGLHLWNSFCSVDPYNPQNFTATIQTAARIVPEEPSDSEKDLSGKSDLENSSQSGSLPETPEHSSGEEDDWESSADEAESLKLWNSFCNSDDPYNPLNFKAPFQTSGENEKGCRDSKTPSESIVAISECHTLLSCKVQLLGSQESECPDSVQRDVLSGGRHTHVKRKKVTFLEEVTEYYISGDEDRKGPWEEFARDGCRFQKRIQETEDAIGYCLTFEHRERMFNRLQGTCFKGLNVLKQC

[8] = tested on: Min6 and INS-1 pancreatic beta-cells; settings: expression in the ER of Min6 and INS-1 cells; cited from earlier work
PPP1R15A (GADD34) = PPP1R15A (GADD34) (Homo sapiens, UniProt O75807); settings: cited from earlier work
[9] = tested on: retinal pigment epithelium (RPE); settings: rat AMD model; cited from earlier work

Sequence of PPP1R15A (GADD34) (O75807 whole entry, species assumed): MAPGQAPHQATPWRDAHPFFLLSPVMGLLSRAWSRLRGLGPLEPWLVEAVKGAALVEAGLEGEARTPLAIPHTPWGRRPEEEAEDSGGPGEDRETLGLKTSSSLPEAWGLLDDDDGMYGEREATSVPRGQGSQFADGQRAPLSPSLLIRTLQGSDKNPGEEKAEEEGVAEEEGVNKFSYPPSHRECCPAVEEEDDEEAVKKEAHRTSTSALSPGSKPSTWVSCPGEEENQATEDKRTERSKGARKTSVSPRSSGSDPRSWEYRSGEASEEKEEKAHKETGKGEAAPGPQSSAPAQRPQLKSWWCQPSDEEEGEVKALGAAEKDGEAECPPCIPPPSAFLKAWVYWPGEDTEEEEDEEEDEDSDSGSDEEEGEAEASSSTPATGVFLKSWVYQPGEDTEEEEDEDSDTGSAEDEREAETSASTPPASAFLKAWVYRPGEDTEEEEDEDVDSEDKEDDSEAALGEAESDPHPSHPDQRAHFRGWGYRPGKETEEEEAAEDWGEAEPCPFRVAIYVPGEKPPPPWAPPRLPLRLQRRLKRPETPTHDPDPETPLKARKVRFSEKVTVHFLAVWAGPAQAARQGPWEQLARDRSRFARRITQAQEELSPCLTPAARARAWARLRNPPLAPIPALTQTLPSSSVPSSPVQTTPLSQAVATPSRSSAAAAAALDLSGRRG

With `N=C(N)N/N=C/c1c(F)cncc1Cl` [Example 16, 1-[(E)-[(3-chloro-5-fluoropyridin-4-yl)methylidene]amino]guanidine] the “Test 1 Survival following ER stress (increase %)” value (HeLa cells [1]) was 140% and the “Test 2 Translation inhibition in non-stressed cells” value (HeLa cells [2]) was “YES”.

In the case of `N=C(N)N/N=C/c1c(F)cccc1Cl` [Example 15, 1-[(E)-[(2-chloro-6-fluorophenyl)methylidene]amino]guanidine], the “Test 1 Survival following ER stress (increase %)” value (HeLa cells [1]) is reported as 160% and the “Test 3 Translation attenuation after Tm” value (HeLa cells [3]) is reported as “prolonged”.

With `CC(=O)NC(=N)N/N=C/c1ccccc1Cl` [Example 8, N-{N-[(E)-[(2-chlorophenyl)methylidene]amino]carbamimidoyl}acetamide] the “Test 1 Survival following ER stress (increase %)” value (HeLa cells [1]) was 100%, the “Test 3 Translation attenuation after Tm” value (HeLa cells [3]) was “prolonged” and the “Test 2 Translation inhibition in non-stressed cells” value (HeLa cells [2]) was “YES”. The “Selectivity assessment Selectivity towards PPP1R15A or PPP1R15B” value (PPP1R15A or PPP1R15B) was “inhibit both PPP1R15A and B”.

For `CCC1(C2=NCCN2)Cc2ccccc2O1` (stereo not shown) [efaroxan], the “protection of cells from cytotoxic ER stress (in words)” value (“protection of cells” for short) (HeLa cells [4]) is listed as “Neither the α2-adrenergic receptor agonist clonidine, nor the α2-adrenergic receptor antagonist efaroxan protected cells”.

With `N=C(N)N/N=C/c1ccccc1F` [Example 3, 1-[(E)-[(2-fluorophenyl)methylidene]amino]-guanidine] the “Test 1 Survival following ER stress (increase %)” value (HeLa cells [1]) was 80%, the “Test 3 Translation attenuation after Tm” value (HeLa cells [3]) was “prolonded” and the “Test 2 Translation inhibition in non-stressed cells” value (HeLa cells [2]) was “YES”.

For `N=C(N)N/N=C/c1ccncc1Cl` [Example 13, 1-[(E)-[(3-chloropyridin-4-yl)methylidene]amino]guanidine], the “Test 1 Survival following ER stress (increase %)” value (HeLa cells [1]) was 60-80%.

In the case of `Cc1ccccc1/C=N/NC(=N)N` [Example 4, 1-[(E)-[(2-methylphenyl)methylidene]amino]guanidine], the “Test 1 Survival following ER stress (increase %)” value (HeLa cells [1]) is reported as 100%, the “Test 3 Translation attenuation after Tm” value (HeLa cells [3]) is reported as “prolonged” and the “Test 2 Translation inhibition in non-stressed cells” value (HeLa cells [2]) is reported as “YES”. For the same molecule, the “Selectivity assessment Selectivity towards PPP1R15A or PPP1R15B” value (PPP1R15A or PPP1R15B) was “inhibit both PPP1R15A and B”.

In the case of `N=C(N)N/N=C/c1ccc(F)cc1Cl` [Example 7, 1-[(E)-[(2-chloro-4-fluorophenyl)methylidene]amino]guanidine], the “Test 1 Survival following ER stress (increase %)” value (HeLa cells [1]) is reported as 160%, the “Test 3 Translation attenuation after Tm” value (HeLa cells [3]) is reported as “prolonged” and the “Test 2 Translation inhibition in non-stressed cells” value (HeLa cells [2]) is reported as “YES”. For the same molecule, the “Selectivity assessment Selectivity towards PPP1R15A or PPP1R15B” value (PPP1R15A or PPP1R15B) was “inhibit both PPP1R15A and B”.

For `O=C(/C=C/c1ccccc1)NC(NC(=S)Nc1cccc2cccnc12)C(Cl)(Cl)Cl` (stereo not shown) [Salubrinal], the “motor capacity in rotarod analysis” value (P0S63del mice; P0S63del mice) is given as “regained almost normal motor capacity”, the toxicity (P0S63del mice; mouse, in vivo) is given as “toxic” and the life span [5] is given as “extends the life span”. For the same molecule, the disease manifestations [6] was “significantly attenuates disease manifestations”.

With `COC(=O)NC(=N)N/N=C/c1ccccc1Cl` [Example 9, methyl N-{N-[(E)-[(2-chlorophenyl)methylidene]amino]carbamimidoyl}carbamate] the “Test 1 Survival following ER stress (increase %)” value (HeLa cells [1]) was 20%.

In the case of `Cc1nnc(N/N=C/c2ccccc2Cl)[nH]c1=O` [Example 6, 2-chlorobenzaldehyde (6-methyl-5-oxo-4,5-dihydro-1,2,4-triazin-3-yl)hydrazone], the “Test 1 Survival following ER stress (increase %)” value (HeLa cells [1]) is reported as 120%, the “Test 3 Translation attenuation after Tm” value (HeLa cells [3]) is reported as “prolonged” and the “Selectivity assessment Selectivity towards PPP1R15A or PPP1R15B” value (PPP1R15A or PPP1R15B) is reported as “confirmed selective inhibitors of PPP1R15A”.

In the case of `Clc1cccc(Cl)c1N=C1NCCN1` [clonidine], the “protection of cells” value (HeLa cells [4]) is given as “Neither the α2-adrenergic receptor agonist clonidine, nor the α2-adrenergic receptor antagonist efaroxan protected cells”.

In the case of `NC(N)=N/N=C/c1c(Cl)cccc1Cl` [Guanabenz, 2-(2,6-dichlorobenzylidene)hydrazinecarboximidamide], the “symptoms of prion infected mice” value (prion infected mice) is given as “reduces the symptoms”, the choroidal blood flow (choroidal blood flow) is given as “increased choroidal blood flow markedly” and the “translation inhibition in non-stressed cells” value (non-stressed cells) is given as “does not inhibit translation in non-stressed cells”. The “development of choroidal neovascularization (CNV)” value [7] was “inhibited the development of choroidal neovascularization (CNV)”, the mutant huntingtin accumulation (mutant Huntingtin) was “attenuating accumulation of mutant Huntingtin” and the mutant huntingtin accumulation (mutant Huntingtin; listed as guanabenz) was “reduces mutant huntingtin accumulation in cells”. For the same molecule, the “binding to PPP1R15B” value (PPP1R15B (CReP)) was “does not bind”, the “protection against lethal effects of Insulin Akita mutant expression” value [8] was “protection against the lethal effects” and the EC50 (HeLa cells [4]; read-out: median effective concentration (cells surviving ER stress)) was ~400 nM. For the same molecule, the “protection of cells” value (HeLa cells [4]) was “doubled the number of cells surviving ER stress”, the “binding to PPP1R15A” value (PPP1R15A (GADD34)) was “binding to a regulatory subunit of protein phosphatase 1, PPP1R15A (GADD34)” and the “protection of RPE from NalO3-induced degeneration” value [9] was “significantly protected”.

With `N=C(N)N/N=C/c1ccccc1Br` [Example 2, 1-[(E)-[(2-bromophenyl)methylidene]amino]-guanidine] the “Test 1 Survival following ER stress (increase %)” value (HeLa cells [1]) was 40%, the “Test 3 Translation attenuation after Tm” value (HeLa cells [3]) was “prolonged” and the “Test 2 Translation inhibition in non-stressed cells” value (HeLa cells [2]) was “YES”. For the same molecule, the “Selectivity assessment Selectivity towards PPP1R15A or PPP1R15B” value (PPP1R15A or PPP1R15B) was “inhibit both PPP1R15A and B”.
